The source of these data is patent US20240216514A1, “NOVEL ANTITUMOR COMPOUNDS AND RELATED METHODS OF MANUFACTURE AND USE” (KLOTHO THERAPEUTICS, INC., priority 2021, published 2024).

As usually defined, the IC50 is the concentration needed to halve the response being measured. Higher therefore signals a need for much substance.

One data set deals with H929. Description: Tumor cell growth inhibition, CellTiter-Glo viability, H929. Format: cell-based. As to conditions: H929, Bone Marrow; 72 hours. On the procedure:
(§1) To support the potential of compounds of the invention as antitumor agents, their ability to inhibit tumor cell growth across a range of cancer types was evaluated, compared to cisplatin (See FIGS. 3A-3C and FIGS. 4A-4C). Cancer cells were seeded at optimized density on 384-well plates in appropriate media for 24 hours in triplicate for each test article. Titrated compounds or cisplatin were added to cultures for 72 hours with 3-fold dilutions totaling 9 concentrations starting from 30 uM for compounds or 50 uM for cisplatin (see FIGS. 3A-3C). Cell viability was then determined by CellTiter-Glo® Luminescent Cell Viability Assay from Promega, Madison Wisconsin. A dose response curve (see FIGS. 4A-4C) was fitted from luminance activity and the IC50 for each test article was calculated using a four-parameter variable slope in GraphPad Prism version 8.0.0 for Windows, GraphPad Software, San Diego, California USA, www.graphpad.com. Conjugates were more cytotoxic to cancer cells compared to cisplatin alone, some were particularly noteworthy in colon cancer (HCT-15), prostate cancer (PC-3), and breast cancer (MCF-7) cells compared to cisplatin (see, also, Table 1, below).
(In general: Cellular ATP, detected with luciferase, serves as a proxy for viable cell number.)

Another data set deals with MCF-7. Description: Tumor cell growth inhibition, CellTiter-Glo viability, MCF-7. Format: cell-based. The conditions noted are these: MCF-7, Breast; 72 hours. On the procedure: as §1
For another data set, the system named is MDA-MB-231. Description: Tumor cell growth inhibition, CellTiter-Glo viability, MDA-MB-231. The conditions noted are these: MDA-MB-231, Breast; 72 hours. It is filed as cell-based. On the procedure:
as §1

Another data set relates to Hela. Description: Tumor cell growth inhibition, CellTiter-Glo viability, Hela. It is filed as cell-based. The conditions noted are these: Cervical, 72 hours. On the procedure:
as §1

For the next data set, the system named is HCT-15. Description: Tumor cell growth inhibition, CellTiter-Glo viability, HCT-15. It is filed as cell-based. The conditions noted are these: HCT-15, Colon; 72 hours. How it is done: as §1
The subject of another data set is Huh-7. Description: Tumor cell growth inhibition, CellTiter-Glo viability, Huh-7. It is filed as cell-based. The conditions noted are these: Huh-7, Liver; 72 hours. On the procedure:
as §1

A further data set relates to HepG2-PM4. Description: Tumor cell growth inhibition, CellTiter-Glo viability, HepG2-PM4. It is filed as cell-based. As to conditions: HepG2-PM4, Liver; 72 hours. On the procedure: as §1
In another data set the test system is LNCap. Description: Tumor cell growth inhibition, CellTiter-Glo viability, LNCap. Format: cell-based. The conditions noted are these: Prostate, 72 hours. How it is done: as §1
A further data set deals with PC-3. Description: Tumor cell growth inhibition, CellTiter-Glo viability, PC-3. Format: cell-based. The conditions noted are these: PC-3, Prostate; 72 hours. How it is done: as §1
The nature of data set [1]: Chemoprotection against cisplatin-induced myelotoxicity. As to conditions: preliminary results. The source says:
Accordingly, by combining PTBA or its analogs with cisplatin through chemical conjugation, not only will the conjugate drug have the potential to act as a synergistic anti-cancer drug combination in its own right, but PTBA and its analogs will also provide for chemoprotection against nephrotoxicity during cancer therapy. […] By reducing adverse side effects, this chemoprotective characteristic of PTBA and its analogs, co-administered as a chemical conjugate with cisplatin, has the potential to increase drug tolerability, to permit uninterrupted treatment schedules, and to eliminate the need to reduce drug doses.

In data set [2] the test system is nephrotoxin-induced and ischemia/reperfusion-induced kidney injury. As to conditions: rodents; cited from earlier work.
Another data set concerns the target HDAC8 (Homo sapiens, UniProt Q9BY41). As to conditions: cited from earlier work.

Sequence of HDAC8 (Q9BY41 whole entry): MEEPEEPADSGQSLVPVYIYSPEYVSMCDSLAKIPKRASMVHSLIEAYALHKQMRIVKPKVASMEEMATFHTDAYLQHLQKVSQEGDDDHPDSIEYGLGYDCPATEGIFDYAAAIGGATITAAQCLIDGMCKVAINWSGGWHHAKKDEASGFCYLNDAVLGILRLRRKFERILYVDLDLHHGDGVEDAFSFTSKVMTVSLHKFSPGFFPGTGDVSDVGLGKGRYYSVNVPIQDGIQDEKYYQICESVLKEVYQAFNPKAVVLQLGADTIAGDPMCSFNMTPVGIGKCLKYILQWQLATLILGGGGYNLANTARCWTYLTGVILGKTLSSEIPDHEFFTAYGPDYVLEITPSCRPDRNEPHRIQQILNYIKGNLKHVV

On to `N.N.[Cl][Pt][Cl]` [Cisplatin, cisdiamminedichloroplatinum [II]], for which the IC50 with H929 amounted to 2.35 µM; in the data set with MCF-7 it was 2.25 µM; in the data set with MDA-MB-231, 2.85 µM; in the data set on Hela, 12.3 µM; with HCT-15 it was 24.3 µM; in the data set with Huh-7, 6.47 µM. Further, the IC50 in the data set with HepG2-PM4 came to 14 µM; in the data set on LNCap, 10.9 µM; with PC-3, 22 µM.
For `O=C(O)CCCSc1ccccc1` [PTBA, 4-(phenylthio)butanoic acid], the “Chemoprotective effect against cisplatin-induced myelotoxicity” value in data set [1] is “chemoprotective effect”. Moreover, the “Recovery of kidney function after AKI” value in [2] is reported as “significantly accelerate recovery of kidney function”.
Trichostatin A: at HDAC8, the “Concentration that completely inhibits HDAC8 activity” value was 5 µM.
As to `O=C(CCCCCCC(=O)Nc1ccccc1)NO` [Vorinostat, suberoylanilide hydroxamic acid], the “Inhibition of HDAC8 (potency range)” value on HDAC8 is recorded as “micromolar range”.
